No end group written: not given here.
Legend:
Format in all cases: in vivo
BALB/c mice [1] = test: Prophylactic treatment in murine house dust mite driven model of allergic asthma (Example 5); conditions: for Increase of airway resistance (airway hyper responsiveness) / Decrease of pulmonary compliance: vs HDM challenged vehicle
Method: Treatment regime: Female 7-10 weeks old BALB/c mice were randomly allocated into 5study groups one day prior to study start and subcutaneously (SC) sensitized to house dust mite (100 μg HDM in 200 uL saline plus Freund's complete adjuvant in 0.9% saline). The mice were treated with hBD-2 orally and intranasally respectively at a dose of 1.2 mg/kg/day (0.4 mg/kg TID) starting on day 12 in the morning and continued TID at approximately 6 hours intervals. The last dose was administered on day 14 one hour prior to challenge. The total number of doses was 8 doses or a total of […] hBD-2.Mice were then intranasally (IN) challenged with HDM on day 14 (HDM 25 μg in 50 μL of saline) (FIG. 2).
Airway inflammation: At 48 hours post challenge, bronchoalveolar lavage was performed washing the lungs with 3 volumes of cold PBS (0.4; 0.3 and 0.3 mL, total 1 mL). Total and differential leucocyte cell counts were determined on an automated haematological analyser Sysmex XT-2000iV.
Lung function: Starting 48 hours after HDM challenge, measurements of lung resistance and lung compliance were carried out after methacholine challenge (3.125 MCH1; 6.25 MCH2; 12.5 MCH3 and 25 mg/mL MCH4) by anaesthetized, cannulated mice using DSI's Buxco Finepoint RC system. Data are represented as airway resistance at […] methacholine and as dose responsive curves. Lung sampling for cytokine analysis: After completion of every BAL, lungs were removed from the thorax, snap frozen in liquid nitrogen and stored frozen at −80 degrees Celsius until analysis of cytokine concentration of TNF-α, IL-4, IL-5, IL-6, IL-9, IL-13 and IL-33 in lung homogenate by ELISA.

BALB/c mice [2] = test: Therapeutic intervention in murine house dust mite/Freund's complete adjuvant driven model of allergic asthma, histopathology and cytokines (Example 7); conditions: for Histological inflammation of lung tissue: vs HDM challenged vehicle
Method: Treatment regime: Female 7-10 weeks old BALB/c mice randomly allocated into 4 study groups one day prior to study start were subcutaneously (SC) sensitized to house dust mite (100 μg HDM in 200 μL saline plus Freund's complete adjuvant in 0.9% saline). Mice were intranasally (IN) challenged with HDM on day 14 (HDM 25 μg in 50 μL of saline). hBD-2 was administered IN or orally (0.4 mg/kg TID IN; 0.4 mg/kg TID orally, 50 μL phosphate buffered saline) on day 14. The initial dose was administered 60 minutes prior to challenge, and the subsequent doses approximately 6 hours apart (FIG. 3, groups 1-4)).
Blood sampling: All terminal blood samples were collected via jugular vein bleeds. Blood was sampled to Li-heparin tubes, put on ice and immediately centrifuged at 4° C. Plasma was separated and stored at −80° C. until the potential SCFA analysis. Lung tissue sampling: The lungs were exposed and excised by gently opening the thorax and by cutting down either side of the sternum and ribs and trimming back. […]
Cellular influx (mononuclears, eosinophils, neutrophils) was assessed semi-quantitatively on H&E stained slides separately for peri-bronchial/bronchiolar and perivascular space as follows: • 0 absent • 1 few scattered inflammatory cells • 2 larger aggregates • 3 marked accumulation of cells
Overall score for inflammation was calculated as the sum of all individual scores. Goblet cell metaplasia, separately at a level of large airways and distal airways, was assessed at PAS-stained slides as follows: • 0 no mucus containing cells along basement membrane • 1 few positive cells along basement membrane with less than 75% of the cytoplasm stained • 2 few positive cells along basement membrane with more than 75% of the cytoplasm stained • 3 numerous positive cells along basement membrane with less than 75% of the cytoplasm stained • 4 numerous positive cells along basement membrane with more than 75% of the cytoplasm stained […]

BALB/c mice [3] = test: Murine model of acute graft versus host disease, oral hBD-2 versus cyclosporine (Example 12)
Method: Treatment regime: 20 female BALB/c mice were irradiated with 4.5 Gy (2×498 sec) at intervals of at least 4 hours on day 0. Bone marrow was harvested: hind limbs harvested from 2 female WT C57BL/6 mice aseptically. Skeletal muscle was removed and epiphysis cut away. Lumen of bone flushed with PBS and cells pelleted and taken up. Harvest of T-cells: spleens from 2 female WT C57BL/6 mice were meshed through a […] cell strainer into a PBS filled dish. Cells were taken up in PBS and transferred into a 50 mL falcon tube and spun down. Cells were taken up in 1 mL PBS and 20 μL of CD4 microbead +20 μL CD8 microbeads per spleen added for incubation for 20 min at 4 degrees C. Cells were washed with PBS and applied to MACS separation in order to positively select CD4+ and CD8+ cells. Positively selected T-cells were counted and taken up. Transplantation: directly after the second irradiation, all WT BALB/c recipient mice were injected with 5×1.000.000 BM cells (50 μL) i.v. into the retroorbital venous plexus under isoflurane anesthesia. 20 BALB/c mice were treated with 1.2 mg of hBD2/kg BW/day (n=7); 50 mg cyclosporine/kg BW on days 0, 3, 6 and 9 (n=7) or 100 uL PBS per day vial oral gavage (n=6) from day 0-10.
The mice were weighed at regular intervals during the study and survival was monitored for 90 days.

[4] = intranasal administration, not statistically significantly different from the control

Substance: human beta defensin 2 (GIGDPVTCLKSGAICHPVFCPRRYKQIGTCGLPGTKCCKKP; ends and bridges not checked; cysteine pairing not given here; listed as Homo sapiens) [hBD-2]
- Increase of airway resistance (airway hyper responsiveness) (BALB/c mice [1]; intranasal 0.4 mg/kg TID day 12 to day 14, 8 administrations): effectively inhibited increase of airway resistance
- Decrease of pulmonary compliance (BALB/c mice [1]; intranasal 0.4 mg/kg TID day 12 to day 14): effectively inhibited
- IL-4 concentration in lung tissue homogenate (BALB/c mice [1]; [4]): trend towards lowering
- IL-5 concentration in lung tissue homogenate (BALB/c mice [1]; [4]): trend towards lowering
- IL-6 concentration in lung tissue homogenate (BALB/c mice [1]; [4]): trend towards lowering
- IL-9 concentration in lung tissue homogenate (BALB/c mice [1]; [4]): trend towards lowering
- IL-13 concentration in lung tissue homogenate (BALB/c mice [1]; [4]): trend towards lowering
- TNF-α concentration in lung tissue homogenate (BALB/c mice [1]; [4]): trend towards lowering
- Increase of airway resistance (airway hyper responsiveness) (BALB/c mice [1]; oral 0.4 mg/kg TID day 12 to day 14, 8 administrations, 48 hours after HDM challenge): effectively inhibited increase of airway resistance
- Decrease of pulmonary compliance (BALB/c mice [1]; oral 0.4 mg/kg TID day 12 to day 14): effectively inhibited
- IL-4 concentration in lung tissue homogenate (BALB/c mice [1]; oral administration): complete normalization of cytokine concentrations
- IL-5 concentration in lung tissue homogenate (BALB/c mice [1]; oral administration): complete normalization of cytokine concentrations
- IL-6 concentration in lung tissue homogenate (BALB/c mice [1]; oral administration): complete normalization of cytokine concentrations
- IL-9 concentration in lung tissue homogenate (BALB/c mice [1]; oral administration): complete normalization of cytokine concentrations
- IL-13 concentration in lung tissue homogenate (BALB/c mice [1]; oral administration): complete normalization of cytokine concentrations
- TNF-α concentration in lung tissue homogenate (BALB/c mice [1]; oral administration): complete normalization of cytokine concentrations
- Neutrophil counts in BALF (BALB/c mice [1]; oral application, 48 hours post challenge): significantly inhibited neutrophil counts
- Histological inflammation of lung tissue (BALB/c mice [2]; intranasal 0.4 mg/kg TID on day 14): effectively inhibited the increase in histological inflammation of lung tissue
- Histological inflammation of lung tissue (BALB/c mice [2]; oral 0.4 mg/kg TID on day 14): effectively inhibited the increase in histological inflammation of lung tissue
- IL-5 level in lung tissue homogenate (BALB/c mice [2]; oral administration): Significant effects
- Mortality (BALB/c mice [3]; 7 mice oral hBD-2 for 10 days, p=0.03): statistically significant reduction of mortality
- Weight loss following bone marrow transplantation (BALB/c mice [3]; compared with the PBS treated mice): lost statistically significantly less weight
- Animals that had died by day 90 (BALB/c mice [3]; hBD2 1.2 mg/kg BW/day day 0-10 (n=7), cyclosporine 50 mg/kg BW on days 0, 3, 6 and 9 (n=7), PBS n=6, all but one died): 1
